≈ marks a conversion by molar mass, not a printed value.
What was measured:
[1] = tested on: Staphylococcus aureus; assay: In vitro antibacterial activity against Staphylococcus aureus strains UC12673, UC9213, ATCC 29213, and UC9271 (SA); range is 2-4; type: functional
[2] = tested on: Enterococcus faecium; assay: In vitro antibacterial activity against vancomycin-resistant Enterococcus faecium UC12712 (VRE).
[3] = tested on: Mus musculus; assay: In vivo Efficacy of compound after peroral administration in mouse; type: functional; conditions: po
[4] = tested on: Haemophilus influenzae; assay: In vitro antibacterial activity against Haemophilia influenzae strains 30063 and ATCC 31517 (HI); range is 4-8; type: functional
[5] = tested on: Staphylococcus aureus; assay: In vitro antibacterial activity against linezolid-resistant Staphylococcus aureus ATCC 29213 (LRSA).; type: functional
[6] = tested on: Moraxella catarrhalis; assay: In vitro antibacterial activity against Moraxella catarrhalis strains 30607 and 30603 (MC).; type: functional
[7] = tested on: Staphylococcus epidermidis; assay: In vitro antibacterial activity against Staphylococcus epidermidis strains UC12084, 30031, and CDC-CNS90 (SE); range is 1-2; type: functional
[8] = tested on: Streptococcus pneumoniae; assay: In vitro antibacterial activity against Streptococcus pneumoniae strains ATCC 6305 and 31573 (SPN); range is 0.5-1
[9] = tested on: Staphylococcus aureus; assay: In vitro antibacterial activity against Staphylococcus aureus strains UC12673, UC9213, ATCC 29213, and UC9271 (SA); range is 16-32; type: functional
[10] = tested on: Staphylococcus epidermidis; assay: In vitro antibacterial activity against Staphylococcus epidermidis strains UC12084, 30031, and CDC-CNS90 (SE); type: functional
[11] = tested on: Haemophilus influenzae; assay: In vitro antibacterial activity against Haemophilia influenzae strains ATCC 30063 and ATCC 31517; type: functional
[12] = tested on: Moraxella catarrhalis; assay: In vitro antibacterial activity against Moraxella catarrhalis strains 30607 and 30603 (MC); range is 8-16; type: functional
[13] = tested on: Streptococcus pneumoniae; assay: In vitro antibacterial activity against Streptococcus pneumoniae strains ATCC6305 and 31573 (SPN).
[14] = tested on: Staphylococcus aureus; assay: In vitro antibacterial activity against Staphylococcus aureus strains UC12673, UC9213, ATCC 29213, and UC9271 (SA); range is 4-8; type: functional
[15] = tested on: Streptococcus pneumoniae; assay: In vitro antibacterial activity against Streptococcus pneumoniae strains ATCC 6305 and 31573 (SPN); range is 4-8
[16] = tested on: Staphylococcus epidermidis; assay: In vitro antibacterial activity against Staphylococcus epidermidis strains UC12084, 30031, and CDC-CNS90 (SE); range is 4-8; type: functional
[17] = tested on: Haemophilus influenzae; assay: In vitro antibacterial activity against Haemophilia influenzae strains 30063 and ATCC 31517 (HI); range is 32-64; type: functional
[18] = tested on: Staphylococcus aureus; assay: In vitro antibacterial activity against Staphylococcus aureus strains UC12673, UC9213, ATCC 29213, and UC9271 (SA); range is 8-32; type: functional
[19] = tested on: Staphylococcus aureus; assay: In vitro antibacterial activity against Staphylococcus aureus strains UC12673, UC9213, ATCC 29213, and UC9271 (SA); type: functional
[20] = tested on: Staphylococcus epidermidis; assay: In vitro antibacterial activity against Staphylococcus epidermidis strains UC12084, 30031, and CDC-CNS90 (SE); range is 2-4; type: functional
[21] = tested on: Haemophilus influenzae; assay: In vitro antibacterial activity against Haemophilia influenzae strains 30063 and ATCC 31517 (HI); range is 8-32; type: functional
[22] = tested on: Streptococcus pneumoniae; assay: In vitro antibacterial activity against Streptococcus pneumoniae strains ATCC 6305 and 31573 (SPN); range is 2-4
[23] = tested on: Haemophilus influenzae; assay: In vitro antibacterial activity against Haemophilia influenzae strains 30063 and ATCC 31517 (HI); range is 16-32; type: functional
[24] = tested on: Staphylococcus aureus; assay: In vitro antibacterial activity against Staphylococcus aureus strains UC12673, UC9213, ATCC 29213, and UC9271 (SA); range is 8-16; type: functional
[25] = tested on: Staphylococcus epidermidis; assay: In vitro antibacterial activity against Staphylococcus epidermidis strains UC12084, 30031, and CDC-CNS90 (SE); range is 0.5-1; type: functional
[26] = tested on: Haemophilus influenzae; assay: In vitro antibacterial activity against Haemophilia influenzae strains 30063 and ATCC 31517 (HI); range is 8-16; type: functional
[27] = tested on: Mus musculus; assay: In vivo Efficacy of compound after peroral administration to protect the Staphylococcus aureus mouse septicemia model; type: functional; conditions: po

Row | SMILES | MIC [2] [µg/mL] | MIC [5] [µg/mL] | MIC [6] [µg/mL] | MIC [7] [µg/mL] | MIC [10] [µg/mL] | MIC [11] [µg/mL] | other results
1 | O=C(CF)NC[C@H]1CN(c2ccc(C3CC[S+]([O-])CC3)c(F)c2)C(=O)O1 (stereo partly drawn) | 4 (≈ 10.4 µM) | 32 (≈ 82.8 µM) | 8 (≈ 20.7 µM) | 1 (≈ 2.59 µM) |  |  | MIC [1]: 2 µg/mL (≈ 5.18 µM); ED50 [3]: 3.75 mg/kg; MIC [4]: 4 µg/mL (≈ 10.4 µM); MIC [8]: 0.5 µg/mL (≈ 1.29 µM)
2 | O=C(NC[C@H]1CN(c2ccc(N3CC[S+]([O-])CC3)c(F)c2)C(=O)O1)C1CC1 | 4 (≈ 10.1 µM) | 64 (≈ 162 µM) |  |  | 4 (≈ 10.1 µM) | 32 (≈ 80.9 µM) | MIC [9]: 16 µg/mL (≈ 40.5 µM); MIC [12]: 8 µg/mL (≈ 20.2 µM)
3 | CC(=O)NC[C@H]1CN(c2ccc(N3CC[S+]([O-])CC3)c(F)c2)C(=O)O1 | 2 (≈ 5.41 µM) | > 64 | 4 (≈ 10.8 µM) | 1 (≈ 2.71 µM) |  |  | MIC [4]: > 4 µg/mL; MIC [13]: 1 µg/mL (≈ 2.71 µM); MIC [14]: 4 µg/mL (≈ 10.8 µM)
4 | CC(=O)Nc1ccc(/C=C/C(=O)NC[C@H]2CN(c3ccc(N4CC[S+]([O-])CC4)c(F)c3)C(=O)O2)cc1 | 8 (≈ 15.5 µM) | > 64 | 16 (≈ 31.1 µM) | 1 (≈ 1.94 µM) |  | > 64 | MIC [14]: 4 µg/mL (≈ 7.77 µM)
5 | O=C(NC[C@H]1CN(c2ccc(N3CCS(=O)(=O)CC3)c(F)c2)C(=O)O1)c1csnn1 | 16 (≈ 35.1 µM) | 32 (≈ 70.3 µM) | 32 (≈ 70.3 µM) |  |  |  | MIC [15]: 4 µg/mL (≈ 8.78 µM); MIC [16]: 4 µg/mL (≈ 8.78 µM); MIC [17]: 32 µg/mL (≈ 70.3 µM); MIC [18]: 8 µg/mL (≈ 17.6 µM)
6 | CC(=O)NC[C@H]1CN(c2ccc(N3CCS(=O)(=O)CC3)c(F)c2)C(=O)O1 | 2 (≈ 5.19 µM) | 64 (≈ 166 µM) | 4 (≈ 10.4 µM) |  | 1 (≈ 2.59 µM) |  | MIC [4]: 4 µg/mL (≈ 10.4 µM); MIC [8]: 0.5 µg/mL (≈ 1.3 µM); MIC [19]: 4 µg/mL (≈ 10.4 µM)
7 | O=C1O[C@@H](CNC(=O)C(F)(F)F)CN1c1ccc(C2CCS(=O)(=O)CC2)c(F)c1 | 8 (≈ 18.2 µM) | 64 (≈ 146 µM) | 8 (≈ 18.2 µM) |  |  |  | MIC [18]: 8 µg/mL (≈ 18.2 µM); MIC [20]: 2 µg/mL (≈ 4.56 µM); MIC [21]: > 8 µg/mL
8 | O=C(CO)NC[C@H]1CN(c2ccc(C3CC[S+]([O-])CC3)c(F)c2)C(=O)O1 (stereo partly drawn) | 8 (≈ 20.8 µM) | 64 (≈ 166 µM) | 8 (≈ 20.8 µM) |  | 4 (≈ 10.4 µM) | 8 (≈ 20.8 µM) | MIC [9]: 16 µg/mL (≈ 41.6 µM); MIC [22]: 2 µg/mL (≈ 5.2 µM)
9 | CSCC(=O)NC[C@H]1CN(c2ccc(C3CCS(=O)(=O)CC3)c(F)c2)C(=O)O1 | 4 (≈ 9.29 µM) | 64 (≈ 149 µM) | 8 (≈ 18.6 µM) |  | 2 (≈ 4.65 µM) |  | MIC [14]: 4 µg/mL (≈ 9.29 µM); MIC [21]: 8 µg/mL (≈ 18.6 µM)
10 | O=C(CC(F)(F)F)NC[C@H]1CN(c2ccc(N3CCS(=O)(=O)CC3)c(F)c2)C(=O)O1 | 4 (≈ 8.82 µM) | > 64 | 16 (≈ 35.3 µM) |  | 4 (≈ 8.82 µM) |  | MIC [23]: 16 µg/mL (≈ 35.3 µM); MIC [24]: 8 µg/mL (≈ 17.6 µM)
11 | O=C1O[C@@H](CNC(=O)C(F)(F)F)CN1c1ccc(C2CC[S+]([O-])CC2)c(F)c1 (stereo partly drawn) | 4 (≈ 9.47 µM) | 32 (≈ 75.8 µM) | 8 (≈ 18.9 µM) |  |  |  | MIC [20]: 2 µg/mL (≈ 4.73 µM); MIC [21]: 8 µg/mL (≈ 18.9 µM); MIC [19]: 8 µg/mL (≈ 18.9 µM)
12 | CC(=O)NC[C@H]1CN(c2ccc(C3CC[S+]([O-])CC3)c(F)c2)C(=O)O1 (stereo partly drawn) | 2 (≈ 5.43 µM) | 64 (≈ 174 µM) |  |  |  | 8 (≈ 21.7 µM) | MIC [13]: 0.5 µg/mL (≈ 1.36 µM); MIC [12]: > 8 µg/mL; MIC [25]: 0.5 µg/mL (≈ 1.36 µM); MIC [19]: 4 µg/mL (≈ 10.9 µM)
13 | CC(=O)NC[C@H]1CN(c2ccc(N3CCOCC3)c(F)c2)C(=O)O1 [LINEZOLID] |  | 64 (≈ 190 µM) |  | 1 (≈ 2.96 µM) |  |  | MIC [26]: > 8 µg/mL; ED50 [27]: 5 mg/kg
